Experimental data reported in US9801961B2, “2-phenylimidazo[1,2-a]pyrimidines as imaging agents” (Hoffmann-La Roche Inc., priority 2013, dated 2017).

Each compound was assayed on native tau aggregates (assay: TAU radioligand in vitro displacement assay ([3H]T808 autoradiography on human AD brain sections)). Details: compound 10 nM, radioligand [3H]T808 10 nM, 50 mM Tris pH 7.4, room temperature, 30 min.
Format: binding
Description: TAU Radioligand-In-Vitro Displacement Assay
This in vitro binding assay assesses the affinity of compounds for native tau aggregates. The compounds are co-incubated with the well-established tau specific radioligand [^3H]T808 and the compound's displacement potency of [^3H]T808 binding is determined by in vitro autoradiography using human Alzheimer's disease (AD) brain sections (FIG. 1).
AD human brains are purchased from Banner Sun Health Research Institute (Sun City, Ariz., USA). Pathological diagnosis of AD is made according to standard NIA-Reagan Institute criteria based on neuropathological data. The radioligand [^3H]T808 was synthesized in-house ([^3H]-2-[4-(2-Fluoro-ethyl)-piperidin-1-yl]-benzo[4,5]imidazo[1,2-a]pyrimidine, radiochemical purity 99.0%). As a reference cold T808 is used (2-[4-(2-Fluoro-ethyl)-piperidin-1-yl]-benzo[4,5]imidazo[1,2-a]pyrimidine). For the autoradiography FujiFilm Imaging Plates (BAS-IP TR 2025) are exposed to the sections and read with a FujiFilm IP reader (BAS-5000).
Ten μm thick human AD brain sections are generated with a cryostat (Leica CM3050) at −17° C. chamber temperature and −15° C. object temperature. Sections are transferred to Histobond+microscope slides (Marienfeld Laboratory Glasware). After drying for 3 hours at room temperature the sections are stored at −20° C. The sections are incubated with the radioligand (10 nM) and the respective cold compound (at various concentrations) in 50 mM Tris buffer, pH 7.4 at room temperature for 30 min. After washing 3×10 min at 4° C. in 50 mM Tris buffer, pH 7.4 and 3 quick dips in H2O dist. at 4° C. the sections are dried at 4° C. for 3 h. The sections are placed in a FujiFilm Cassette (BAS 2025), exposed with an Imaging Plate for five days and afterwards scanned with a resolution of […].
The signal intensity (Dens—PSL/mm2) in the region of interest (ROI) of the autoradiogram is quantified with the software MCID analysis (version 7.0, Imaging Research Inc.). The specific binding (SB) of [^3H]T808 binding in absence or in presence of a compound is calculated by subtracting the non-specific binding signal in the white matter, thus yielding SB[3H]T808 only and SBcompund. The % displacement by the various compounds is calculated as following: % displacement=100−(SBcompund/SB[3H]T808 only)*100.
In each experiment cold T808 is used as a positive internal control. Co-incubation of equimolar amounts of hot and cold T808 is expected to reduce specific binding by approximately 50%.

| SMILES | % displacement of [3H]T808 (10 nM) at 10 nM [%] |
| --- | --- |
| COc1ccc(-c2cn3ccc(N(C)C)nc3n2)cc1 [Example 36, 2-(4-Methoxyphenyl)-N,N-dimethylimidazo[1,2-a]pyrimidin-7-amine] | 47 |
| CN(C)c1ccn2cc(-c3ccc4c(c3)OCO4)nc2n1 [Example 37, 2-(1,3-Benzodioxol-5-yl)-N,N-dimethylimidazo[1,2-a]pyrimidin-7-amine] | 46 |
| CN(C)c1ccn2cc(-c3ccc4c(c3)OCCO4)nc2n1 [Example 38, 2-(2,3-Dihydro-1,4-benzodioxin-6-yl)-N,N-dimethylimidazo[1,2-a]pyrimidin-7-amine] | 37 |
| Cc1ccc(-c2cn3ccc(N(C)C)nc3n2)cc1 [Example 39, N,N-Dimethyl-2-(4-methylphenyl)imidazo[1,2-a]pyrimidin-7-amine] | 49 |
| Cc1cccc(-c2cn3ccc(N(C)C)nc3n2)c1 [Example 40, N,N-Dimethyl-2-(3-methylphenyl)imidazo[1,2-a]pyrimidin-7-amine] | 51 |
| COc1cccc(-c2cn3ccc(N4CCOCC4)nc3n2)c1 [Example 41, 4-[2-(3-Methoxyphenyl)imidazo[1,2-a]pyrimidin-7-yl]morpholine] | 16 |
| Cc1ccc(-c2cn3ccc(N4CCOCC4)nc3n2)cc1 [Example 42, 4-[2-(4-Methylphenyl)imidazo[1,2-a]pyrimidin-7-yl]morpholine] | 8 |
| COc1ccc(-c2cn3ccc(N4CCCC4)nc3n2)cc1 [Example 43, 2-(4-Methoxyphenyl)-7-pyrrolidin-1-ylimidazo[1,2-a]pyrimidine] | 29 |
| Cc1ccc(-c2cn3ccc(N4CCCC4)nc3n2)cc1 [Example 44, 2-(4-Methylphenyl)-7-pyrrolidin-1-ylimidazo[1,2-a]pyrimidine] | 28 |
| CN(C)c1ccn2cc(-c3ccc(N4CCOCC4)cc3)nc2n1 [Example 45, N,N-Dimethyl-2-(4-morpholin-4-ylphenyl)imidazo[1,2-a]pyrimidin-7-amine] | 29 |
| CN(C)c1ccc(-c2cn3ccc(N(C)C)nc3n2)cc1 [Example 46, 2-[4-(Dimethylamino)phenyl]-N,N-dimethylimidazo[1,2-a]pyrimidin-7-amine] | 43 |
| COc1cccc(-c2cn3ccc(N4CCCC4)nc3n2)c1 [Example 47, 2-(3-Methoxyphenyl)-7-pyrrolidin-1-ylimidazo[1,2-a]pyrimidine] | 20 |
| Cc1cccc(-c2cn3ccc(N4CCCC4)nc3n2)c1 [Example 48, 2-(3-Methylphenyl)-7-pyrrolidin-1-ylimidazo[1,2-a]pyrimidine] | 23 |
| COc1ccc(-c2cn3ccc(N4CCCCC4)nc3n2)cc1 [Example 49, 2-(4-Methoxyphenyl)-7-piperidin-1-ylimidazo[1,2-a]pyrimidine] | 17 |
| COc1cccc(-c2cn3ccc(N4CCCCC4)nc3n2)c1 [Example 50, 2-(3-Methoxyphenyl)-7-piperidin-1-ylimidazo[1,2-a]pyrimidine] | 14 |
| Cc1ccc(-c2cn3ccc(N4CCCCC4)nc3n2)cc1 [Example 51, 2-(4-Methylphenyl)-7-piperidin-1-ylimidazo[1,2-a]pyrimidine] | 8 |

| SMILES | % displacement of [3H]T808 (10 nM) at 10 nM [%] |
| --- | --- |
| Cc1cccc(-c2cn3ccc(N4CCCCC4)nc3n2)c1 [Example 52, 2-(3-Methylphenyl)-7-piperidin-1-ylimidazo[1,2-a]pyrimidine] | 14 |
| COc1ccc(-c2cn3ccc(N4CCCCC4)nc3n2)cc1OC [Example 53, 2-(3,4-Dimethoxyphenyl)-7-piperidin-1-ylimidazo[1,2-a]pyrimidine] | 6 |
| FCCC1CCN(c2ccn3cc(-c4ccccc4)nc3n2)CC1 [Example 54, 7-[4-(2-Fluoroethyl)piperidin-1-yl]-2-phenylimidazo[1,2-a]pyrimidine] | 14 |
| COc1cccc(-c2cn3ccc(N4CCC(CCF)CC4)nc3n2)c1 [Example 55, 7-[4-(2-Fluoroethyl)piperidin-1-yl]-2-(3-methoxyphenyl)imidazo[1,2-a]pyrimidine] | 10 |
| COc1ccc(-c2cn3ccc(N4CCC(CCF)CC4)nc3n2)cc1 [Example 56, 7-[4-(2-Fluoroethyl)piperidin-1-yl]-2-(4-methoxyphenyl)imidazo[1,2-a]pyrimidine] | 9 |
| FCCC1CCN(c2ccn3cc(-c4ccc5c(c4)OCO5)nc3n2)CC1 [Example 57, 2-(1,3-Benzodioxol-5-yl)-7-[4-(2-fluoroethyl)piperidin-1-yl]imidazo[1,2-a]pyrimidine] | 9 |
| FCCC1CCN(c2ccn3cc(-c4ccc5c(c4)OCCO5)nc3n2)CC1 [Example 58, 2-(2,3-Dihydro-1,4-benzodioxin-6-yl)-7-[4-(2-fluoroethyl)piperidin-1-yl]imidazo[1,2-a]pyrimidine] | 18 |
| Cc1cccc(-c2cn3ccc(N4CCC(CCF)CC4)nc3n2)c1 [Example 59, 7-[4-(2-Fluoroethyl)piperidin-1-yl]-2-(3-methylphenyl)imidazo[1,2-a]pyrimidine] | 10 |
| Cc1ccc(-c2cn3ccc(N4CCC(CCF)CC4)nc3n2)cc1 [Example 60, 7-[4-(2-Fluoroethyl)piperidin-1-yl]-2-(4-methylphenyl)imidazo[1,2-a]pyrimidine] | 15 |
| FCCC1CCN(c2ccn3cc(-c4ccc(N5CCOCC5)cc4)nc3n2)CC1 [Example 61, 4-[4-[7-[4-(2-Fluoroethyl)piperidin-1-yl]imidazo[1,2-a]pyrimidin-2-yl]phenyl]morpholine] | 10 |
| CNc1ccn2cc(-c3cccc(C)c3)nc2n1 [Example 62, N-Methyl-2-(3-methylphenyl)imidazo[1,2-a]pyrimidin-7-amine] | 48 |
| COc1ccc(-c2cn3ccc(N(C)CCOCCF)nc3n2)cc1 [Example 64, N-[2-(2-Fluoroethoxy)ethyl]-2-(4-methoxyphenyl)-N-methylimidazo[1,2-a]pyrimidin-7-amine] | 15 |
| COc1ccc(-c2cn3ccc(N4CC5(CCC5)C4)nc3n2)cc1 [Example 65, 7-(2-Azaspiro[3.3]heptan-2-yl)-2-(4-methoxyphenyl)imidazo[1,2-a]pyrimidine] | 11 |
| CCN(C)c1ccn2cc(-c3ccc(OC)cc3)nc2n1 [Example 66, N-Ethyl-2-(4-methoxyphenyl)-N-methylimidazo[1,2-a]pyrimidin-7-amine] | 34 |
| CCN(CC)c1ccn2cc(-c3ccc(OC)cc3)nc2n1 [Example 67, N,N-Diethyl-2-(4-methoxyphenyl)imidazo[1,2-a]pyrimidin-7-amine] | 19 |

Same assay, conditions: compound 1 uM, radioligand [3H]T808 10 nM, 50 mM Tris pH 7.4, room temperature, 30 min

| SMILES | % displacement of [3H]T808 (10 nM) at 1 uM [%] |
| --- | --- |
| FC1CCN(c2ccn3cc(-c4ccsc4)nc3n2)CC1 [Example 63, 7-(4-Fluoropiperidin-1-yl)-2-thiophen-3-ylimidazo[1,2-a]pyrimidine] | 70 |
